In patent publication US11993573B2, “Chromane-substituted, tetrahydroquinoline-substituted and thiochromane-substituted heteroarotinoids as anti-cancer agents” (THE BOARD OF REGENTS FOR OKLAHOMA STATE UNIVERSITY, priority 2018, dated 2024):
Read-outs that look alike come from different tables or passages of the source.

What was measured:
[1] = system: human ovarian cancer cell line A2780; assay: Growth inhibition assay (CellTiter 96 Non-Rad Cell Proliferation Assay); format: cell-based; conditions: for efficacy compared with SHetA2 / IC50 compared with SHetA2: comparison in words; for IC50 compared with SHetA2: 'exceeded' = lower IC50 in Table 1
Method: To illustrate the general activity of the compounds inhibiting growth of human […] ovarian cancer cells, selected compounds were synthesized and evaluated. The compounds were dissolved in DMSO at a concentration of 0.01 M. The human ovarian cancer cell line A2780 was plated in 96-well tissue culture dishes at a concentration of 3000 cells per well in RPMI medium supplemented with 10% fetal bovine serum and a mixture of antibiotics and antimycotics. The next day, the cultures were treated in triplicate with compound concentrations ranging from 2 μM to 8 μM increments. For compound 12, additional experiments were performed with concentrations of 10 μM and a series of two-fold dilutions to 156 nM. Control cultures were treated with DMSO solvent only. After 72 h of incubation, the […] 96® Non-Rad Cell Proliferation Assay (Promega) was used to quantify the remaining metabolically living cells. After subtracting blank values, the optical density (OD) readouts of the assay for the treated cultures were normalized with the average OD of the control cultures. For each compound, the experiment was repeated at least once, resulting in a minimum of 6 dose-response curves. For SHetA2, 24 response curves were available for statistical fitting parameters. A custom program was written in GNU Octave, a free software compatible with Matlab, to fit the dose-response curves with a four-parameter sigmoid function, extracting the IC50 and efficacy (the maximal % growth inhibition) parameters.
To illustrate the useful biological activity of these chroman-substituted and tetrahydroquinoline-substituted heteroarotinoids, the compounds were screened against human […] ovarian cancer cells.

[2] = Homo sapiens, A2780, 72 h, Table 2, tetrahydroquinoline-containing members
[3] = Homo sapiens, A2780, 72 h, Table 2, maximal % growth inhibition, A2780, 72 h, read-out: Efficacy
[4] = Homo sapiens, A2780, 72 h, Table 1, chroman-containing series
[5] = Homo sapiens, A2780, 72 h, Table 1, maximal % growth inhibition, A2780, 72 h, read-out: Efficacy
[6] = Homo sapiens, A2780, Table 3, 14 series (thiochroman), A2780
[7] = Homo sapiens, A2780, Table 3, 14 series, A2780, read-out: % Efficacy

Compound | IC50 [1, 2] [µM] | Emax [1, 3] [%] | melting point [°C] | IC50 [1, 4] [µM] | Emax [1, 5] [%] | efficacy compared with SHetA2 ([1]; A2780) | further results
CN1c2ccc(NC(=O)Nc3ccc(C(F)(F)F)cc3)cc2C(C)(C)C(O)C1(C)C (centres unmarked) [Compound 13c, 1-(3-Hydroxy-1,2,2,4,4-pentamethyl-1,2,3,4-tetrahydroquinolin-6-yl)-3-(4-(trifluoromethyl)phenyl)urea] | 6.7 | 25 | 213 to 215 | – | – | – | –
CCC1(CC)CC(C)(C)c2cc(NC(=O)Nc3ccc(C(F)(F)F)cc3)ccc2O1 [Compound 6c, 1-(2,2-Diethyl-4,4-dimethylchroman-6-yl)-3-(4-(trifluoromethyl)phenyl)urea] | – | – | 208 to 210 | 2.45 | 92.4 | exceeded the efficacy of SHetA2 | IC50 compared with SHetA2 ([1]; A2780): exceeded
CN1c2ccc(NC(=O)Nc3ccc([N+](=O)[O-])cc3)cc2C(C)(C)C(O)C1(C)C (centres unmarked) [Compound 13a, 1-(3-Hydroxy-1,2,2,4,4-pentamethyl-1,2,3,4-tetrahydroquinolin-6-yl)-3-(4-nitrophenyl)urea] | 8.4 | 26 | 215 to 217 | – | – | – | –
CCC1(CC)CC(CC)(CC)c2cc(NC(=O)Nc3ccc(C(F)(F)F)cc3)ccc2O1 [Compound 8c, 1-(2,2,4,4-Tetraethylchroman-6-yl)-3-(4-(trifluoromethyl)phenyl)urea] | – | – | 165 to 166 | 2 | 86.2 | – | IC50 compared with SHetA2 ([1]; A2780): exceeded
CN1c2ccc(NC(=O)Nc3ccc(C(F)(F)F)cc3)cc2C(C)(C)C(=O)C1(C)C [Compound 11c, 1-(1,2,2,4,4-Pentamethyl-3-oxo-1,2,3,4-tetrahydroquinolin-6-yl)-3-(4-(trifluoromethyl)phenyl)urea] | 2.58 | 90.1 | 198 to 199 | – | – | – | –
CC1(C)CCOc2ccc(NC(=S)Nc3ccc(OC(F)(F)F)cc3)cc21 [Compound 4c, 1-(4,4-Dimethylchroman-6-yl)-3-(4-(trifluoromethoxy)phenyl)thiourea] | – | – | 153 to 154 | 4.3 | 16 | – | –
CN1c2ccc(NC(=O)Nc3ccc([N+](=O)[O-])cc3)cc2C(C)(C)C(=O)C1(C)C [Compound 11a, 1-(4-Nitrophenyl)-3-(1,2,2,4,4-pentamethyl-3-oxo-1,2,3,4-tetrahydroquinolin-6-yl)urea] | 3.8 | 94.8 | 200 to 201 | – | – | – | –
CN1c2ccc(NC(=O)Nc3ccc(OC(F)(F)F)cc3)cc2C(C)(C)C(O)C1(C)C (centres unmarked) [Compound 13e, 1-(3-Hydroxy-1,2,2,4,4-pentamethyl-1,2,3,4-tetrahydroquinolin-6-yl)-3-(4-(trifluoromethoxy)phenyl)urea] | 7.8 | 23.6 | 188 to 189 | – | – | – | –
CN1c2ccc(NC(=S)Nc3ccc(C(F)(F)F)cc3)cc2C(C)(C)C(O)C1(C)C (centres unmarked) [Compound 13d, 1-(3-Hydroxy-1,2,2,4,4-pentamethyl-1,2,3,4-tetrahydroquinolin-6-yl)-3-(4-(trifluoromethyl)phenyl)thiourea] | 7.6 | 56.1 | 105 to 107 | – | – | – | –
CC1(C)CC(C)(C)c2cc(NC(=S)Nc3ccc(S(N)(=O)=O)cc3)ccc2O1 [Compound 2d, 4-(3-(2,2,4,4-Tetramethylchroman-6-yl)thioureido)benzenesulfonamide] | – | – | 186 to 187 | – | – | – | –
CCC1(CC)CC(C)(C)Oc2ccc(NC(=O)Nc3ccc(C(F)(F)F)cc3)cc21 [Compound 7d, 1-(4,4-Diethyl-2,2-dimethylchroman-6-yl)-3-(4-(trifluoromethyl)phenyl)urea] | – | – | 225 to 226 | 2.43 | 93.3 | exceeded the efficacy of SHetA2 | IC50 compared with SHetA2 ([1]; A2780): exceeded
CN1c2ccc(NC(=S)Nc3ccc([N+](=O)[O-])cc3)cc2C(C)(C)CC1(C)C [Compound 12, 3-(1,2,2,4,4-Pentamethyl-1,2,3,4-tetrahydroquinolin-6-yl)-1-(4-nitrophenyl)thiourea] | 4.49 | 91.7 | 151 to 153 | – | – | – | –
CC1(C)CC(C)(C)c2cc(NC(=S)Nc3ccc(C(F)(F)F)cc3)ccc2O1 [Compound 2c, 1-(2,2,4,4-Tetramethylchroman-6-yl)-3-(4-(trifluoromethyl)phenyl)thiourea] | – | – | 166 to 168 | 4.7 | 22 | – | –
CC1(C)CC(C)(C)c2cc(NC(=O)Nc3ccc(OC(F)(F)F)cc3)ccc2O1 [Compound 3c, 1-(2,2,4,4-Tetramethylchroman-6-yl)-3-(4-(trifluoromethoxy)phenyl)urea] | – | – | 219 to 221 | 3.6 | 88.4 | exceeded the efficacy of SHetA2 | –
CC1(C)CCNc2ccc(NC(=S)Nc3ccc(C(F)(F)F)cc3)cc21 [Compound 9c, 1-(4,4-Dimethyl-1,2,3,4-tetrahydroquinolin-6-yl)-3-(4-(trifluoromethyl)phenyl)thiourea] | 6 | 42 | 104 to 105 | – | – | – | –
CC1(C)CCNc2ccc(NC(=S)Nc3ccc(OC(F)(F)F)cc3)cc21 [Compound 9d, 1-(4,4-Dimethyl-1,2,3,4-tetrahydroquinolin-6-yl)-3-(4-(trifluoromethoxy)phenyl)thiourea] | 7.1 | 24 | 69 to 71 | – | – | – | –
CCC1(CC)CC(CC)(CC)c2cc(NC(=O)Nc3ccc([N+](=O)[O-])cc3)ccc2O1 [Compound 8b, 1-(4-Nitrophenyl)-3-(2,2,4,4-tetraethylchroman-6-yl)urea] | – | – | – | 2.09 | 91.4 | exceeded the efficacy of SHetA2 | IC50 compared with SHetA2 ([1]; A2780): exceeded
CC1(C)CC(C)(C)c2cc(NC(=S)NNC(=O)c3ccc([N+](=O)[O-])cc3)ccc2S1 [Compound 14s, 2-(4-Nitrobenzoyl)-N-(2,2,4,4-tetramethylthiochroman-6-yl)hydrazine-1-carbothioamide] | – | – | – | – | – | – | IC50 [1, 6]: 3.15 ± 0.19 µM; Emax [1, 7]: 43.3 ± 2.9%
CN1c2ccc(NC(=O)Nc3ccc(N)cc3)cc2C(C)(C)C(=O)C1(C)C [Compound 11g, 1-(4-Aminophenyl)-3-(1,2,2,4,4-pentamethyl-3-oxo-1,2,3,4-tetrahydroquinolin-6-yl)urea] | 7.7 | 24 | – | – | – | – | –
CC1(C)CC(C)(C)c2cc(NC(=O)Nc3ccc(OC(F)(F)F)cc3)ccc2S1 [Compound 14b, 1-(2,2,4,4-Tetramethylthiochroman-6-yl)-3-(4-(trifluoromethoxy)phenyl)urea] | – | – | – | – | – | exceeded that of SHetA2 in efficacy | IC50 [1, 6]: 1.86 ± 0.09 µM; Emax [1, 7]: 95.6 ± 0.4%
CC1(C)CC(C)(C)c2cc(NC(=S)NCc3ccc(O)cc3)ccc2S1 [Compound 14p, 1-(4-Hydroxybenzyl)-3-(2,2,4,4-tetramethylthiochroman-6-yl)thiourea] | – | – | – | – | – | – | IC50 [1, 6]: 3.23 ± 0.49 µM; Emax [1, 7]: 56.8 ± 3.3%
CC1(C)CC(C)(C)c2cc(NC(=S)NCc3ccc(C(F)(F)F)cc3)ccc2S1 [Compound 14n, 1-(2,2,4,4-Tetramethylthiochroman-6-yl)-3-(4-(trifluoromethyl)benzyl)thiourea] | – | – | – | – | – | exceeded that of SHetA2 in efficacy | IC50 [1, 6]: 4.82 ± 0.41 µM; Emax [1, 7]: 95.3 ± 0.3%
CCC1(CC)CC(C)(C)c2cc(NC(=S)Nc3ccc([N+](=O)[O-])cc3)ccc2O1 [Compound 6a, 1-(2,2-Diethyl-4,4-dimethylchroman-6-yl)-3-(4-nitrophenyl)thiourea] | – | – | – | 2.9 | 93.9 | exceeded the efficacy of SHetA2 | IC50 compared with SHetA2 ([1]; A2780): exceeded
CCC1(CC)CC(C)(C)Oc2ccc(NC(=S)Nc3ccc([N+](=O)[O-])cc3)cc21 [Compound 7a, 1-(4,4-Diethyl-2,2-dimethylchroman-6-yl)-3-(4-nitrophenyl)thiourea] | – | – | – | 3.69 | 95.7 | exceeded the efficacy of SHetA2 | –
CN1c2ccc(NC(=S)Nc3ccc([N+](=O)[O-])cc3)cc2C(C)(C)C(O)C1(C)C (centres unmarked) [Compound 13b] | – | – | – | – | – | – | IC50 ([1]; Table 2, tetrahydroquinoline-containing members, A2780, 72 h): 10 µM; Efficacy ([1]; Table 2, maximal % growth inhibition, A2780, 72 h): 25 (±4) %
CCC1(CC)CC(CC)(CC)c2cc(NC(=S)Nc3ccc([N+](=O)[O-])cc3)ccc2O1 [Compound 8a, 1-(4-Nitrophenyl)-3-(2,2,4,4-tetraethylchroman-6-yl)thiourea] | – | – | – | 4.6 | 94 | exceeded the efficacy of SHetA2 | –
CC1(C)CC(C)(C)c2cc(NC(=O)Nc3ccc(C(F)(F)F)cc3)ccc2S1 [Compound 14a, 1-(2,2,4,4-Tetramethylthiochroman-6-yl)-3-(4-(trifluoromethyl)phenyl)urea] | – | – | – | – | – | exceeded that of SHetA2 in efficacy | IC50 [1, 6]: 3.79 ± 0.05 µM; Emax [1, 7]: 93.3 ± 0.1%
